# Laboratory results as given in patent US9045403B2 (Coyote Pharmaceuticals, Inc., priority 2012, dated 2015).
# Several values for one entry are separate records, joined by “and”; a condition that tells them apart may be missing. Equal values may be shown once.
# How the values were obtained:
# [1] = Pharmacokinetics of CNS-102 in rats, IV and oral; assay type: in vivo; conditions: rat
# Method: Rats were administered a single dose of CNS-102 either intravenously (12 mg/kg) or orally (24 mg/kg), and blood samples were taken to measure the average plasma concentrations of CNS-102 over time.
# The formulation for this study includes the following: […]
# AUC(0-last) (min*ng/ml): area under the concentration-time curve from zero up to the last measurable time-point.
# lz (1/min): the first order rate constant associated with the terminal (log-linear) portion of the curve, estimated by linear regression of time vs. log concentration.
# Terminal Half-Life (t½)=ln(2)/lz: calculated using Lambda_z method to find best fit. If necessary, the concentration-time points were manually selected for use in the calculation. Bolded-italicized concentrations indicate points used for calculation.
# AUC(0-inf) (min*ng/ml): Area under the concentration-time curve from zero up to infinity, based on the last observed concentration. Requires lz.
# HSP70 [2] = assay: HSP70 expression in Neuro2A cells by western blot; assay type: cell-based, mouse; conditions: Neuro2A cells, western blot
# Method: Differentiation was induced and cells incubated with geranylgeranyl transferase I inhibitor, GGTI-298. Cells were harvested and lysates were prepared and analyzed by western blot for HSP70 and HSP90. Western signals in the absence of the compounds were normalized as 1.00.
# [3] = test system: Murine neuro2A neuroblastoma cells; assay: Neurite outgrowth of neuro2A cells inhibited with GGTI-298 (Example 30); assay type: cell-based, mouse; conditions: for Relative %: relative to uninhibited count
# Method: Differentiation was induced and cells incubated with geranylgeranyl transferase I inhibitor, GGTI-298. After 24 h digital images were taken and neurite outgrowth was quantified. The comparisons of the neuroprotective effect of these three compounds are shown below.
# The estimated mean log10 counts, from five replicate wells for each treatment group were calculated by PROC GLM in SAS assuming a pooled estimate of variation.
# The estimated mean log10 counts from five replicate wells for each treatment group were calculated by PROC GLM in SAS assuming a pooled estimate of variation.
# Differences in mean log(counts) between treatments for each concentration were calculated using PROC GLM in SAS. The p-value given is for the comparison of the estimated difference to zero, the expected difference value for no treatment effect. The anti-log of the differences represent the estimated ratio of counts (relative effect on inhibition) and are tabulated below along with the lower and upper 95% confidence intervals.
# HSP70 [4] = assay: HSP70 expression in cortex and hippocampus by western blot after oral dosing; assay type: in vivo, rat; parameters: HSP70 expression, treatment average: scale not given here
# Method: The time course of protein expression, as measured by western blot for HSP70, was determined in triplicate for hippocampus, and cortex tissue samples taken from each of 5 animals per group at each of four time points (24, 48, 72, and 96 h) after treatment with either PBS or 12 mg/kg CNS-102, administered orally. The average expression for each treatment group is calculated at each time point for each tissue using PROC MIXED in SAS and are tabulated, along with the difference (delta) between treatment averages and a p-value comparing the difference to zero, below.
# [5] = test system: Sprague Dawley rats, KA injected into the hippocampus; assay: Time course of neuroprotection in the kainic acid model; assay type: in vivo, rat; conditions: for Difference of mean fraction damaged to pooled PBS / Mean fraction of hippocampus cells having KA-induced damage: 12 mg/kg oral; for Mean fraction of hippocampus cells having KA-induced damage: pooled PBS 0.187
# Method: CNS-102 was administered orally to Sprague Dawley rats at 12 mg/kg. After dosing, KA was stereotactically injected into the hippocampus at 24, 48, 72, 96 and 168 hours to induce neuron damage. After 24 h, hippocampus tissue was collected, stained, and imaged. The scans were analyzed by Image J to calculate the fraction of cells having KA-induced damage. Average fraction damaged in the hippocampus from ten animals for each treatment (PBS vs. 12 mg/kg CNS-102) by time (24, 48, 72, 96 and 168 hours) combination was estimated with PROC MIXED in SAS. Comparisons of the CNS-102 treatment groups to the pooled PBS treatment at the different times can be made, giving the results tabulated below.
# [6] = test system: Sprague Dawley rats, KA injected into the hippocampus; assay: Neuroprotection by CNS-102 in the presence of GGA cis-isomer in the kainic acid model; assay type: in vivo; conditions: 24 mg/Kg rat oral; KA at 72 hours
# Method: After dosing, KA was stereotactically injected into the hippocampus at 72 hours to induce neuron damage. After 24 h, hippocampus tissue was collected, stained, and imaged. The scans were analyzed by Image J to calculate the fraction of cells having KA-induced damage.
# HSP70 [7] = assay: HSP70 induction in rat hippocampus with or without stereotactic kainic acid injection; assay type: in vivo
# Method: Stereotactic injections of Kainic acid into rat hippocampus tissues led to increased damages in neurons. […] Under this condition, neurons and HSP70 expression was stained by immunohistochemistry techniques. HSP70 expression was induced in a very specific area only that KA was injected. The induced area was not stained by HSP70 antibody when KA was not injected, but CNS-102 was dosed.
# HSP70 induction by dosing CNS-102 in the absence of the KA injection was limited in western blot experiments using hippocampus lysates. 120% or 130% of HSP70 expression could be seen by comparing those of vehicle dosing control experiments.
# [8] = Cortex, 24 hours after 12 mg/kg oral
# [9] = Cortex, 48 hours after 12 mg/kg oral
# [10] = Cortex, 72 hours after 12 mg/kg oral
# [11] = Cortex, 96 hours after 12 mg/kg oral
# [12] = Hippocampus, 24 hours after 12 mg/kg oral
# [13] = Hippocampus, 48 hours after 12 mg/kg oral
# [14] = Hippocampus, 72 hours after 12 mg/kg oral
# [15] = Hippocampus, 96 hours after 12 mg/kg oral
smiles,measurement,setting,value
CC(=O)CC/C=C(\C)CC/C=C(\C)CC/C=C(\C)CCC=C(C)C [CNS-102],"AUC(0-inf), Average",[1]; 12 mg/kg IV,208728 ng·min/mL
same,"AUC(0-last), Average",[1]; 12 mg/kg IV,115146 ng·min/mL
same,"C0, Average",[1]; 12 mg/kg IV,9144.0 ng/mL
same,"Vss, Average",[1]; 12 mg/kg IV,9.796 L/kg
same,"Vz, Average",[1]; 12 mg/kg IV,12.039 L/kg
same,"t1/2, Average",[1]; 12 mg/kg IV,2.45 h
same,"AUC(0-inf), Average",[1]; 24 mg/kg oral,204878 ng·min/mL
same,"AUC(0-last), Average",[1]; 24 mg/kg oral,189114 ng·min/mL
same,"Cmax, Average",[1]; 24 mg/kg oral,752.9 ng/mL
same,"Tmax, Average",[1]; 24 mg/kg oral,5.67 h
same,"t1/2, Average",[1]; 24 mg/kg oral,1.72 h
same,"F(0-inf), Average",[1]; 24 mg/kg oral vs 12 mg/kg IV,49.1%
same,"F(0-last), Average",[1]; 24 mg/kg oral vs 12 mg/kg IV,82.1%
same,induction of HSP70 expression (in words),HSP70 [2],induce expression of HSP70 at various concentrations
same,Median Counts of cells with neurite outgrowth,"[3]; 10 nM, CNS-101 vs CNS-102 experiment (no inhibition 95.5, PBS 21.5)",33.8
same,Relative %,"[3]; 10 nM, CNS-101 vs CNS-102 experiment",35.4%
same,Median Counts of cells with neurite outgrowth,"[3]; 100 nM, CNS-101 vs CNS-102 experiment (no inhibition 95.5, PBS 21.5)",43.4
same,Relative %,"[3]; 100 nM, CNS-101 vs CNS-102 experiment",45.4%
same,Median Counts of cells with neurite outgrowth,"[3]; 100 nM, CNS-102 vs CNS-103 experiment (no inhibition 60.3, PBS 18.5)",33.5
same,Relative %,"[3]; 100 nM, CNS-102 vs CNS-103 experiment",55.6%
same,Median Counts of cells with neurite outgrowth,"[3]; 1000 nM, CNS-101 vs CNS-102 experiment (no inhibition 95.5, PBS 21.5)",51.0
same,Relative %,"[3]; 1000 nM, CNS-101 vs CNS-102 experiment",53.4%
same,Median Counts of cells with neurite outgrowth,"[3]; 1000 nM, CNS-102 vs CNS-103 experiment (no inhibition 60.3, PBS 18.5)",23.8
same,Relative %,"[3]; 1000 nM, CNS-102 vs CNS-103 experiment",39.5%
same,Median Counts of cells with neurite outgrowth,"[3]; 10000 nM, CNS-101 vs CNS-102 experiment (no inhibition 95.5, PBS 21.5)",38.2
same,Relative %,"[3]; 10000 nM, CNS-101 vs CNS-102 experiment",40%
same,maximum protection,"[3]; CNS-101 vs CNS-102 experiment, FIG. 4A",~40%
same,maximum protection,"[3]; CNS-102 vs CNS-103 experiment, FIG. 4B",~36%
same,"HSP70 expression, delta CNS-PBS",HSP70 [4]; [8],0.24
same,"HSP70 expression, treatment average",HSP70 [4]; [8],−0.016
same,"HSP70 expression, delta CNS-PBS",HSP70 [4]; [9],0.11
same,"HSP70 expression, treatment average",HSP70 [4]; [9],−0.45
same,"HSP70 expression, delta CNS-PBS",HSP70 [4]; [10],0.13
same,"HSP70 expression, treatment average",HSP70 [4]; [10],0.14
same,"HSP70 expression, delta CNS-PBS",HSP70 [4]; [11],0.19
same,"HSP70 expression, treatment average",HSP70 [4]; [11],0.04
same,"HSP70 expression, delta CNS-PBS",HSP70 [4]; [12],−0.088
same,"HSP70 expression, treatment average",HSP70 [4]; [12],−0.159
same,"HSP70 expression, delta CNS-PBS",HSP70 [4]; [13],0.2
same,"HSP70 expression, treatment average",HSP70 [4]; [13],0.02
same,"HSP70 expression, delta CNS-PBS",HSP70 [4]; [14],0.14
same,"HSP70 expression, treatment average",HSP70 [4]; [14],−0.06
same,"HSP70 expression, delta CNS-PBS",HSP70 [4]; [15],0.17
same,"HSP70 expression, treatment average",HSP70 [4]; [15],−0.32
same,Difference of mean fraction damaged to pooled PBS,[5]; KA at 24 hours,0.005
same,Mean fraction of hippocampus cells having KA-induced damage,[5]; KA at 24 hours,0.193
same,Difference of mean fraction damaged to pooled PBS,[5]; KA at 48 hours,−0.064
same,Mean fraction of hippocampus cells having KA-induced damage,[5]; KA at 48 hours,0.123
same,Difference of mean fraction damaged to pooled PBS,[5]; KA at 72 hours,−0.092
same,Mean fraction of hippocampus cells having KA-induced damage,[5]; KA at 72 hours,0.096
same,Difference of mean fraction damaged to pooled PBS,[5]; KA at 96 hours,−0.056
same,Mean fraction of hippocampus cells having KA-induced damage,[5]; KA at 96 hours,0.131
same,Difference of mean fraction damaged to pooled PBS,[5]; KA at 168 hours,−0.026
same,Mean fraction of hippocampus cells having KA-induced damage,[5]; KA at 168 hours,0.162
same,timepoint of maximal protection effect,[5]; single oral dose of 12 mg/kg,72 h
same,Mean of Hippocampus CA3 neurons damaged (Arbitrary units),[6],19.8182 Arbitrary units
same,HSP70 induction (in words),"HSP70 [7]; KA stereotactically injected in hippocampus, localized in the injection site",a strong induction of HSP70 was seen very clearly
same,HSP70 expression compared with vehicle dosing control,"HSP70 [7]; western blot of hippocampus lysates, absence of the KA injection",120% and 130%
